Data published in patent US8557833B2, “Aminopyrimidines useful as kinase inhibitors” (priority 2005, dated 2013).
Read-outs that look alike come from different tables or passages of the source.

Tests used:
[1] = molecular target: N-terminally truncated Abl kinase; assay: Abl kinase activity inhibition assay, coupled enzyme; type: biochemical; settings: read-out: Abl (wild) Ki; 110 μM ATP, 30° C., 21 nM Abl kinase
Description: Final concentrations of the components of the coupled enzyme system were 2.5 mM phosphoenolpyruvate, 200 μM NADH, […] pyruvate kinase and 20 μg/ml lactate dehydrogenase.
An assay stock buffer solution was prepared containing all of the reagents listed above with the exception of ATP and the test compound of interest. […] Rates of reaction were obtained using a Molecular Devices Spectramax plate reader (Sunnyvale, Calif.) over 10 min at 30° C. The Ki values were determined from the residual rate data as a function of inhibitor concentration using nonlinear regression (Prism 3.0, Graphpad Software, San Diego, Calif.).

Aurora-2 (Aurora A) = molecular target: T1, Aurora-2 (Aurora A) (Homo sapiens, UniProt O14965); assay: Aurora-2 (Aurora A) inhibition assay, coupled enzyme; type: biochemical
T1 sequence (O14965 1-403): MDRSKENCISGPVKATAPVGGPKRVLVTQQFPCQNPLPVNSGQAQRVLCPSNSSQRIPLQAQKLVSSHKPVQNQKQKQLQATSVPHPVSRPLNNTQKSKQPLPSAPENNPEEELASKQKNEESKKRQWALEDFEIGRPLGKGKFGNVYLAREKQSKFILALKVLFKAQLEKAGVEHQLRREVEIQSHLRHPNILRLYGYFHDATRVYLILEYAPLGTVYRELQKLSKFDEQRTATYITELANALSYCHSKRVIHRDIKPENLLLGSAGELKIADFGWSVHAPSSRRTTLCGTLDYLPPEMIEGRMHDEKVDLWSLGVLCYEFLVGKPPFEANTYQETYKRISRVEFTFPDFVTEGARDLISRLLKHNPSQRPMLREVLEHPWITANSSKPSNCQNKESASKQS
Description: Assays were carried out in a mixture of 100 mM Hepes (pH7.5), 10 mM MgCl2, 1 mM DTT, 25 mM NaCl, 2.5 mM phosphoenolpyruvate, 300 μM NADH, 30 μg/ml pyruvate kinase and 10 μg/ml lactate dehydrogenase. […] Assays were carried out at 30° C. and in the presence of 40 nM Aurora-2.
An assay stock buffer solution was prepared containing all of the reagents listed above, with the exception of Aurora-2 and the test compound of interest. […] The plate was preincubated for 10 minutes at 30° C. and the reaction initiated by addition of 10 μl of Aurora-2. Initial reaction rates were determined with a Molecular Devices SpectraMax Plus plate reader over a 10 minute time course. IC50 and Ki data were calculated from non-linear regression analysis using the Prism software package (GraphPad Prism version 3.0cx for Macintosh, GraphPad Software, San Diego Calif., USA).

[2] = Microsomal stability assay; type: in vitro ADME; settings: 5 μM compound, 1 mg/mL liver microsome protein, 37° C., species not given
Description: Microsomal stability was monitored by generation of depletion-time profiles in microsomes from a range of species (male CD-1 mouse, male Sprague-Dawley rat, male Beagle dog, male Cynomolgus monkey and pooled mixed gender human). Compound spiking solutions were made up by diluting down the compound stock solution in DMSO (typically 10 mM) to give a solution in acetonitrile (0.5 mM). […].
The reaction was initiated by the addition (250 μL) of the pre-incubated RGS to the pre-incubated microsome/VRT/PB mixture (pre-incubation in both instances was for 10 minutes at 37° C.). Samples were incubated within Eppendorf vials (1.5 ml) on a heater shaker (DPC Micromix 5 (settings; form 20, amplitude 4) modified to be heated, to 37° C., by two plate heaters fixed to the deck and controlled by a Packard Manual Heater) attached to a Multiprobe II HT Ex automated liquid handler. The liquid handler was programmed (WinPREP software) to sample the microsomal incubation mixture after 0, 2, 10, 30 and 60 minutes of incubation and transfer an aliquot (100 μL) to a stop block (96-well block) containing 100 μL of chilled methanol. The % organic in the stop mixture was optimized for analysis by addition of appropriate volumes of aqueous/organic (typically 100 μl of 50:50 methanol:water).
Prior to analysis the stop block was placed on a shaker (DPC Micromix 5; 10 min, form 20, amplitude 5) to precipitate out proteins. The block was then centrifuged (Jouan GR412; 2000 rpm, 15 min, 4° C.). A sample aliquot (200 μL) was then transferred to an analysis block and the block was centrifuged again (Jouan GR412; 2000 rpm, 5 min, 4° C.) prior to being sent for analysis. Depletion profiles were determined by monitoring the disappearance of VRT by liquid chromatography-tandem mass spectrometry (LC-MS/MS). Samples were injected (20 μL; Agilent 1100 liquid chromatographic system equipped with autosampler) onto an analytical column. Mobile phase consisted of Water+0.05% (v/v) formic acid (A) and methanol+0.05% (v/v) formic acid (B).
Running a gradient method optimized for the compound of interest carried out the compound elution from analytical column. The total run time was 6 minutes with a flow rate of 0.35 mL/min. The entire column effluent entered the electrospray ionization source (positive mode) of a Micromass Quattro LC tandem mass spectrometer between 0.5 and 5.9 min of the run. The mass spectrometry was optimized for the compound of interest. All incubations were conducted in duplicate and results were expressed as % parent remaining at either 30 minutes or 60 minutes relative to 0 minutes sample.

[3] = 400 μM ATP, 570 μM Kemptide, 30° C., 40 nM Aurora-2, read-out: Aurora A Ki

Sequence of N-terminally truncated Abl kinase (P00519 28-1130): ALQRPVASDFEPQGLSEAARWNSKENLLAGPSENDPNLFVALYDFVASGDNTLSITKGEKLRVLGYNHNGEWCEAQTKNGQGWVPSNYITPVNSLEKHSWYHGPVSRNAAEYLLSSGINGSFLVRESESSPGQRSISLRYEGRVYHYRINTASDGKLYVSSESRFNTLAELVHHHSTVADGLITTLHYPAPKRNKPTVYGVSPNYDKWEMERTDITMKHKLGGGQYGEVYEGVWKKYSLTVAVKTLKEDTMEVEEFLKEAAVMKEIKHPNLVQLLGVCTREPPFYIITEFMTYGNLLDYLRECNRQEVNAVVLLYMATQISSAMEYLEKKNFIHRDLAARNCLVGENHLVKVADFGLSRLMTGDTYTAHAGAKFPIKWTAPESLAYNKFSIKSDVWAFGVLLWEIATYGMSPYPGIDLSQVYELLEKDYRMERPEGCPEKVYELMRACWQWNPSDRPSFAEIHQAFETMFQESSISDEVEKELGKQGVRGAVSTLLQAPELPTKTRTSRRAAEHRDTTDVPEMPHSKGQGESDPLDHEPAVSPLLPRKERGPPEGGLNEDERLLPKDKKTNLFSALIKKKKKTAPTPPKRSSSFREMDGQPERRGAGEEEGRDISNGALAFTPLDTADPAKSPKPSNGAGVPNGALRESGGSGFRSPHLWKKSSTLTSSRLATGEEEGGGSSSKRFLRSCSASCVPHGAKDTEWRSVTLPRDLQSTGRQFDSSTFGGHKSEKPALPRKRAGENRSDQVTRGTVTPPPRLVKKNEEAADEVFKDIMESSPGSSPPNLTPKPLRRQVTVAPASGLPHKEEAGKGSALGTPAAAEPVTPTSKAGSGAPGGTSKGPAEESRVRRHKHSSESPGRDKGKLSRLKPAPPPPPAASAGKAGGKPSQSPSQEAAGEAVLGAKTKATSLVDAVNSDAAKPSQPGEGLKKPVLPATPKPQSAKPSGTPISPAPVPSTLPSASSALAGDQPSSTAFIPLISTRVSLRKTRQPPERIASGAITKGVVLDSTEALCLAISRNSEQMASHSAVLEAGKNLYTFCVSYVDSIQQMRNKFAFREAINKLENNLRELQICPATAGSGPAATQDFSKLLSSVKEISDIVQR

SMILES | Ki [1] | Ki (Aurora-2 (Aurora A); [3]) | Microsomal Stability (% remaining after 30 min.) [2] | Microsomal Stability (% remaining after 60 min.) [2] | Ki (Aurora-2 (Aurora A))
Cc1cc(Nc2cc(N3CCC3)nc(Sc3ccc(NC(=O)c4ccccc4Cl)cc3)n2)[nH]n1 [Compound I-1, N-{4-[4-Azetidin-1-yl-6-(5-methyl-2H-pyrazol-3-ylamino)-pyrimidin-2-ylsulfanyl]-phenyl}-2-chloro-benzamide] | 36 nM | 1 nM | 96% | 79% | 
Cc1cc(Nc2cc(N3CCC3)nc(Sc3ccc(NC(=O)c4ccccc4F)cc3)n2)[nH]n1 [Compound I-3] |  | 2.2 nM | 51% | 66% | 
COc1ccccc1C(=O)Nc1ccc(Sc2nc(Nc3cc(C)[nH]n3)cc(N3CCC3)n2)cc1 [Compound I-6] |  |  | 80% |  | 3 nM
Cc1cc(Nc2cc(N3CCC3)nc(Sc3ccc(NC(=O)c4ccccc4OC(F)(F)F)cc3)n2)[nH]n1 [Compound I-8] |  |  | 100% |  | 0.67 nM
Cc1cc(Nc2cc(N3CCC3)nc(Sc3ccc(NC(=O)c4c(Cl)cccc4Cl)cc3)n2)n[nH]1 [Compound I-11] | 21 nM |  |  | 69% | 0.71 nM
Cc1cc(Nc2cc(N3CCC3)nc(Sc3ccc(NC(=O)c4cccc(Cl)c4)cc3)n2)n[nH]1 [Compound I-12] |  |  | 94% |  | 1.4 nM
Cc1cc(Nc2cc(N3CCC3)nc(Sc3ccc(NC(=O)c4cccc(C(F)(F)F)c4F)cc3)n2)n[nH]1 [Compound I-13] |  |  | 85% | 74% | 0.35 nM
O=C(Nc1ccc(Sc2nc(Nc3cc(C4CC4)[nH]n3)cc(N3CCC3)n2)cc1)c1ccccc1Cl [Compound I-17] |  | 0.65 nM | 93% |  | 
Cc1cc(Nc2cc(N3CCC3)nc(Sc3ccc(NC(=O)c4cc(Cl)ccc4Cl)cc3)n2)n[nH]1 [Compound I-21] |  | 0.78 nM | 86% |  | 

More lines, now with the values ahead:

Ki [1] | Ki (Aurora-2 (Aurora A); [3]) | Microsomal Stability (% remaining after 30 min.) [2] | Microsomal Stability (% remaining after 60 min.) [2] | Ki (Aurora-2 (Aurora A)) | SMILES
7 nM | 1.9 nM | 107% | 77% |  | Cc1cc(Nc2cc(N3CCC3)nc(Sc3ccc(NC(=O)c4c(F)cccc4F)cc3)n2)[nH]n1 [Compound I-2, N-{4-[4-Azetidin-1-yl-6-(5-methyl-2H-pyrazol-3-ylamino)-pyrimidin-2-ylsulfanyl]-phenyl}-2,6-Difluoro-benzamide]
 |  | 76% |  | 2.5 nM | Cc1cccc(C(=O)Nc2ccc(Sc3nc(Nc4cc(C)[nH]n4)cc(N4CCC4)n3)cc2)c1 [Compound I-4]
68 nM | 0.87 nM | 98% | 65% |  | Cc1cc(Nc2cc(N3CCC3)nc(Sc3ccc(NC(=O)c4ccccc4C)cc3)n2)[nH]n1 [Compound I-5]
36 nM | 0.38 nM | 103% | 78% |  | Cc1cc(Nc2cc(N3CCC3)nc(Sc3ccc(NC(=O)c4ccccc4C(F)(F)F)cc3)n2)[nH]n1 [Compound I-14]
31 nM |  | 73% | 84% | 0.76 nM | Cc1cc(Nc2cc(N3CCC3)nc(Sc3ccc(NC(=O)c4cccc(Cl)c4F)cc3)n2)n[nH]1 [Compound I-15]
 | 1.2 nM | 109% | 91% |  | Cc1cc(Nc2cc(N3CCC3)nc(Sc3ccc(NC(=O)c4ccccc4C(F)F)cc3)n2)[nH]n1 [Compound I-19]
 |  | 53% |  | 0.77 nM | Cc1cc(Nc2cc(N3CCC3)nc(Sc3ccc(NC(=O)c4cccc(C)c4Cl)cc3)n2)n[nH]1 [Compound I-20]
 |  | 1% | 46% | < 0.35 nM | CCc1cccc(C(=O)Nc2ccc(Sc3nc(Nc4cc(C)[nH]n4)cc(N4CCC4)n3)cc2)c1Cl [Compound I-22]
